According to article PMC4109836, “Analysis of the co-operative interaction between the allosterically regulated proteins GK and GKRP using tryptophan fluorescence” (Biochemical Journal, 2014):
Changes are numbered by the printed parent chain.

Tests used:
[1] = target: T1, GK-WT (Homo sapiens, UniProt P35557); design: method as in ref 4 (a number printed in a supplementary file, which may have a reference list of its own: not looked up in the article's list); settings: cited from earlier work
T1 construct: GST (cleaved yes); made in house; host or cells: Escherichia coli
T1 sequence (P35557 1-465): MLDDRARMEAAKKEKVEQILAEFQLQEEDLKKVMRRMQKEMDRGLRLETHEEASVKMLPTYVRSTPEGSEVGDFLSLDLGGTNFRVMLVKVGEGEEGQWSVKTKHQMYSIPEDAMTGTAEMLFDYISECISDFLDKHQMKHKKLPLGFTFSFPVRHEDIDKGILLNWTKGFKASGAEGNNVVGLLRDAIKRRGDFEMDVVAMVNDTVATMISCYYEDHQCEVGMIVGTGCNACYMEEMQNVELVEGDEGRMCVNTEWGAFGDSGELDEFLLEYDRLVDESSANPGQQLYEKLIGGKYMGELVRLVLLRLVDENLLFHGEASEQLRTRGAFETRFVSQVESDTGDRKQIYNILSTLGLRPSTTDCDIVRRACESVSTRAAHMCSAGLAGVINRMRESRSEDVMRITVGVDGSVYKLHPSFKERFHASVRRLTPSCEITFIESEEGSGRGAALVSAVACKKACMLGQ

[2] = target: T2, GKRP-WT (Homo sapiens, UniProt Q14397); assay: Ligand binding to free GKRP-WT measured by TF of GKRP; settings: ligand alone
T2 construct: FLAG; made in house; host or cells: Escherichia coli
T2 sequence (Q14397 1-625): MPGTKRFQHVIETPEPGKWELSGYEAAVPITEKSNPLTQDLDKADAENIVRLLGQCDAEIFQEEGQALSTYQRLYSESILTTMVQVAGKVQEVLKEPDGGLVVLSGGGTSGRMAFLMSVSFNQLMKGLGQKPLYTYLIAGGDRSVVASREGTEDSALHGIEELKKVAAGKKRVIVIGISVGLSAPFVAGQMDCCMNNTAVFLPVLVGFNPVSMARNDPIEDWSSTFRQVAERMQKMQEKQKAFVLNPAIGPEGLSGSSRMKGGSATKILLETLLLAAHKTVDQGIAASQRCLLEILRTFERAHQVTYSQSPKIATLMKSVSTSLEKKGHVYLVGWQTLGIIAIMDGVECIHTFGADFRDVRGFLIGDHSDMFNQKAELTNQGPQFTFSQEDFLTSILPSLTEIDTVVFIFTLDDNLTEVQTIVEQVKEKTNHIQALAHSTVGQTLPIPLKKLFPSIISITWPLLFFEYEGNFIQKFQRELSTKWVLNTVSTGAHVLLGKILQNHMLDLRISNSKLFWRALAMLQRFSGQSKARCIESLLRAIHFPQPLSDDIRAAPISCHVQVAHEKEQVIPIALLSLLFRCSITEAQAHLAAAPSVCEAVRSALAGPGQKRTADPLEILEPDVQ

[3] = tested on: GK (glucokinase); settings: cited from earlier work
[4] = target: T3, GK-W99R/W167F/W257F (Homo sapiens, UniProt P35557, W167F/W257F/W99R); design: method as in ref 4 (a number printed in a supplementary file, which may have a reference list of its own: not looked up in the article's list); settings: cited from earlier work
T3 construct: GST (cleaved yes); made in house; host or cells: Escherichia coli
T3 sequence (P35557 1-465 W99R/W167F/W257F): T1 sequence (P35557 1-465) with W99R, W167F, W257F

[5] = target: T4, hGKRP (0.3 μM)–GK-W99R/W167F/W257F (1 μM) complex, GKRP-WT (Homo sapiens, UniProt P35557+Q14397, W167F/W257F/W99R); assay: Ligand binding by / disassembly of GKRP-WT–GK-W99R/W167F/W257F complex by TF of hGKRP
T4 construct: FLAG; GST (cleaved yes); made in house; host or cells: Escherichia coli
T4 sequence (Q14397 1-625): T2 sequence (Q14397 1-625)
T4 sequence (P35557 1-465 W99R/W167F/W257F): T1 sequence (P35557 1-465) with W99R, W167F, W257F
Method: Spectra were measured with a Fluorolog-3-21 Jobin-Yvon Spex Instrument SA equipped with a 450 W Xenon lamp for excitation and a cooled R2658P Hamamatsu photomultiplier tube for detection. For all measurements, 90° geometry was employed and 295 nm excitation wavelengths were used to observe fluorescence emission in the 300–500 nm range. For TF, spectra slit width was set to provide a bandpath of 3 nm for excitation and 3 nm for emission. Spectra were corrected for instrumental response using Spex instrument software. A thermostatically controlled cell holder maintained sample temperature at 20°C. A thermocoupler was used to measure sample temperature. The buffer used contained 20 mM phosphate, 50 mM KCl, 1 mM EDTA and 1 mM DTT (pH 7.2).
Fluorescence data were obtained via the stepwise addition of the appropriate amount of non-fluorescent GK-W99R/W167F/W257F to GKRP in a fluorescence cuvette. […] The change in GKRP protein fluorescence during titration was also measured using time-dependent scans. A manual procedure was used such that a typical titration with 10–12 additions required 20–25 min to perform. The same buffer as described above was routinely used unless stated otherwise. The bandpath was 0.5 nm at 295 nm for excitation and 12 nm at 340 nm for emission. […] For some graphical presentations the linear form of the Hill equation was used: log[F/(Fsat−F)]=H log x−H log KD [46].

[6] = addition of 6.6 mM D-glucose, 0.3 μM GKRP and 1 μM GK, pH 7.2, mono ExpDecay fit
[7] = ligand titration of 3:1 GK–GKRP-WT complex, 20°C

ΔF (relative fluorescence change at 340 nm) ([2]; 0.3 μM GKRP-WT, 20°C): 0 | effect on the TF signal of GKRP-WT [2]: no effect | A (amplitude) of time-dependent decrease in GKRP-WT TF [5, 6]: 0.04 | τ of time-dependent decrease in GKRP-WT TF [5, 6]: 11 s | H [5, 7]: 1 | ΔF (relative fluorescence change at 340 nm) [5, 7]: −0.065 | Kd ([5]; ligand titration of 3:1 GK–GKRP-WT complex, 20°C, read-out: Kd (apparent)): 12 mM
SMILES: OC[C@H]1OC(O)[C@H](O)[C@@H](O)[C@@H]1O (stereo partly drawn) [D-Glucose, D-glucose]
H (glucose) [1]: 1.77 | glucose S0.5 [1]: 7.5 mM | Hill coefficient of GK with respect to glucose [3]: approximately 1.7 | affinity of GK for glucose [3]: approximately 7.5 mM | H (glucose) [4]: 1.45 | glucose S0.5 [4]: 4.8 mM
